Measurements taken from patent EP1215499A1 (priority 1999, dated 2001).
*1 amine or outer side, *2 acyl side, *3 side chain or, on linkers, in order; H or OH if unused. Where a SMILES comes first, the peptide text is derived from it. [ ]: non-standard residue; d: D form. The star is where a group is joined. Sta = CC(C)C[C@H](N)[C@@H](O)CC(=O)O; AMC = Cc1cc(=O)oc2cc(N*)ccc12; Suc = O=C(CCC(=O)[*:2])[*:1]; Isovaleryl = CC(C)CC(=O)*; Boc = CC(C)(C)OC(=O)*

How the values were obtained:
Type in all cases: biochemical
miniplasmin [1] = molecular target: T1, miniplasmin (Homo sapiens, UniProt P00747); experiment: biochemical
T1 construct: 38kDa (Kringle 5 + L chain); the 12kDa protein of human miniplasmin includes a kringle 5 that begins with V^441; host or cells: no expression host

miniplasmin [2] = molecular target: T1, miniplasmin
miniplasmin [3] = molecular target: T1, miniplasmin; experiment: Substrate specificity of human miniplasmin (cleavage of fluorescent MCA synthetic substrates); conditions: for Activity (mU/ml): cleavage of the named substrate by human miniplasmin; for cleaving activity of miniplasmin toward the substrate: result in words
Protocol: 2. […] Miniplasmin cut the bond after Arg.
Nor did it toward Bz-Arg-MCA, a synthetic substrate for cathepsin B, which is one of lysosomal enzymes.
The activity of miniplasmin was quantified by defining the enzyme activity that can degrade […] of the synthetic substrate Boc-Glu-Ala-Arg-MCA in 1 minute as 1 unit.

miniplasmin [4] = molecular target: T1, miniplasmin; experiment: as above; conditions: Boc-Gln-Ala-Arg-MCA = 100%

T1 sequence (P00747 481-560): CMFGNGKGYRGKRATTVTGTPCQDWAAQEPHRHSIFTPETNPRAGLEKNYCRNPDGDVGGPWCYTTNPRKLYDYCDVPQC
T1 sequence (P00747 581-810): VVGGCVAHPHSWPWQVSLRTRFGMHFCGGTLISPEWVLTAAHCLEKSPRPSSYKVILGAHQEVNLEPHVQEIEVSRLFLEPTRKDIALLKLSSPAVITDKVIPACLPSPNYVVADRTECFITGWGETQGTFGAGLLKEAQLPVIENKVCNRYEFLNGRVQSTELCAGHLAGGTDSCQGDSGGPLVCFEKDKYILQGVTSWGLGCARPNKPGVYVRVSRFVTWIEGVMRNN

## CC(=O)N[C@@H](CC(C)C)C(=O)N[C@@H](CC(C)C)C(=O)N[C@H](C=O)CCCNC(=N)N [Leupeptin]
Miniplasmin [1]
  inhibition mark (circle / double circle): ⓞ Leupeptin
Miniplasmin [1]; read-out: Relative activity
  activity at 10 µM: 18.6%

## CC(C)CC(=O)N[C@H](C(=O)N[C@H](C(=O)N[C@@H](CC(C)C)[C@@H](O)CC(=O)N[C@@H](C)C(=O)N[C@@H](CC(C)C)[C@@H](O)CC(=O)O)C(C)C)C(C)C [Pepstatin A] (Isovaleryl-VV[Sta]A[Sta]-OH)
Miniplasmin [1]; read-out: Relative activity
  activity at 10 µM: 64%

## N=C(N)c1ccccc1 [Benzamidine]
Miniplasmin [2]
  transformation of F0 into F1 and F2: substantially prevented
Miniplasmin [1]
  inhibition mark (circle / double circle): ○ Benzamidine
Miniplasmin [1]; read-out: Relative activity
  activity at 10 µM: 67.6%
  activity at 1000 µM: 22.9%

## Cc1cc(=O)oc2cc(NC(=O)[C@H](CCCNC(=N)N)NC(=O)CNC(=O)[C@H](CCC(N)=O)NC(=O)OC(C)(C)C)ccc12 [Boc-Gln-Gly-Arg-MCA] (Boc-Gln-Gly-Arg-{AMC})
Miniplasmin [3]
  Activity (mU/ml): 8.1 mU/ml

## Cc1cc(=O)oc2cc(NC(=O)[C@H](CCCNC(=N)N)NC(=O)[C@H](CCCNC(=N)N)NC(=O)[C@H](CCC(N)=O)NC(=O)OC(C)(C)C)ccc12 [Boc-Gln-Arg-Arg-MCA] (Boc-Gln-Arg-Arg-{AMC})
Miniplasmin [3]
  Activity (mU/ml): 16.1 mU/ml

## Boc-Ile-Gln-Gly-Arg-MCA (Boc-IQGR-{AMC})
Miniplasmin [4]
  % (Activity as a percentage of that with Boc-Gln-Ala-Arg-MCA): 4.8%
Miniplasmin [3]
  Activity (mU/ml): 1.6 mU/ml
  cleaving activity of miniplasmin toward the substrate: substantially no cleaving activity

## Cc1cc(=O)oc2cc(NC(=O)[C@H](CCCNC(=N)N)NC(=O)[C@@H]3CCCN3C(=O)CNC(=O)[C@H](C)NC(=O)OC(C)(C)C)ccc12 [Boc-Ala-Gly-Pro-Arg-MCA] (Boc-AGPR-{AMC})
Miniplasmin [3]
  Activity (mU/ml): 2.5 mU/ml

## CC(C)C[C@H](NC(=O)[C@@H](NC(=O)N[C@@H](Cc1ccccc1)C(=O)O)C1CCN=C(N)N1)C(=O)N[C@H](C=O)Cc1ccccc1 (some centres unmarked) [Cymostatin]
Miniplasmin [1]; read-out: Relative activity
  activity at 10 µM: 100%

## Cc1cc(=O)oc2cc(NC(=O)[C@H](CCCCN)NC(=O)[C@H](CCCCN)NC(=O)[C@H](CCC(=O)O)NC(=O)OC(C)(C)C)ccc12 [Boc-Glu-Lys-Lys-MCA] (Boc-Glu-Lys-Lys-{AMC})
Miniplasmin [3]
  Activity (mU/ml): 50.3 mU/ml
  cleaving activity of miniplasmin toward the substrate: highest cleaving activity

## Cc1cc(=O)oc2cc(NC(=O)[C@H](CCCNC(=N)N)NC(=O)c3ccccc3)ccc12 [Bz-Arg-MCA]
Miniplasmin [3]
  Activity (mU/ml): 0.0 mU/ml
  cleaving activity of miniplasmin toward the substrate: substantially no cleaving activity

## Cc1cc(=O)oc2cc(NC(=O)[C@H](CCCNC(=N)N)NC(=O)[C@@H](NC(=O)[C@H](CC(C)C)NC(=O)OC(C)(C)C)[C@@H](C)O)ccc12 [Boc-Leu-Thr-Arg-MCA] (Boc-Leu-Thr-Arg-{AMC})
Miniplasmin [3]
  Activity (mU/ml): 3.4 mU/ml

## Cc1cc(=O)oc2cc(NC(=O)[C@H](CCCNC(=N)N)NC(=O)[C@H](CO)NC(=O)[C@H](Cc3ccccc3)NC(=O)OC(C)(C)C)ccc12 [Boc-Phe-Ser-Arg-MCA] (Boc-Phe-Ser-Arg-{AMC})
Miniplasmin [3]
  Activity (mU/ml): 5.0 mU/ml

## CC(C)C[C@H](NC(=O)N[C@H](C(=O)N[C@@H](CCC(N)=O)C(=O)N[C@@H](C)C=O)[C@@H]1CCNC(=N)N1)C(=O)O [Elastatinal]
Miniplasmin [1]; read-out: Relative activity
  activity at 10 µM: 69.2%

## CC(C)CC(NC(=O)C1OC1C(=O)O)C(=O)NCCCCNC(=N)N (centres unmarked) [E-64]
Miniplasmin [1]; read-out: Relative activity
  activity at 10 µM: 61.5%

## Cc1cc(=O)oc2cc(NC(=O)[C@H](CCCNC(=N)N)NC(=O)[C@H](Cc3ccccc3)NC(=O)[C@@H]3CCCN3)ccc12 [Pro-Phe-Arg-MCA] (H-Pro-Phe-Arg-{AMC})
Miniplasmin [3]
  Activity (mU/ml): 5.0 mU/ml

## Cc1cc(=O)oc2cc(NC(=O)[C@H](Cc3ccccc3)NC(=O)[C@@H]3CCCN3C(=O)[C@H](C)NC(=O)[C@H](C)NC(=O)CCC(=O)O)ccc12 [Suc-Ala-Ala-Pro-Phe-MCA] (Suc-AAPF-{AMC})
Miniplasmin [3]
  Activity (mU/ml): 0.0 mU/ml

## CC(C)C[C@H](NP(=O)(O)O[C@@H]1O[C@@H](C)[C@H](O)[C@@H](O)[C@H]1O)C(=O)N[C@@H](Cc1c[nH]c2ccccc12)C(=O)O [Phosphoramidon]
Miniplasmin [1]; read-out: Relative activity
  activity at 10 µM: 100%

## O=S(=O)(F)Cc1ccccc1 [Phenylmethylsulfonyl fluoride]
Miniplasmin [1]
  inhibition mark (circle / double circle): ○ Phenylmethylsulfonyl fluoride
Miniplasmin [1]; 1000 µM
  Relative activity: 95.1%
Miniplasmin [1]; 10000 µM
  Relative activity: 29.5%

## Cc1cc(=O)oc2cc(NC(=O)[C@H](CCCNC(=N)N)NC(=O)[C@H](CCCNC(=N)N)NC(=O)[C@H](CC(C)C)NC(=O)OC(C)(C)C)ccc12 [Boc-Leu-Arg-Arg-MCA] (Boc-Leu-Arg-Arg-{AMC})
Miniplasmin [3]
  Activity (mU/ml): 3.1 mU/ml

## Cc1cc(=O)oc2cc(NC(=O)[C@H](CCCNC(=N)N)NC(=O)[C@H](C)NC(=O)[C@H](CCC(N)=O)NC(=O)OC(C)(C)C)ccc12 [Boc-Gln-Ala-Arg-MCA] (Boc-Gln-Ala-Arg-{AMC})
Miniplasmin [3]
  Activity (mU/ml): 32.3 mU/ml

## Cc1cc(=O)oc2cc(NC(=O)[C@H](CCCCN)NC(=O)[C@H](CC(C)C)NC(=O)[C@@H](NC(=O)OC(C)(C)C)C(C)C)ccc12 [Boc-Val-Leu-Lys-MCA] (Boc-Val-Leu-Lys-{AMC})
Miniplasmin [4]
  % (Activity as a percentage of that with Boc-Gln-Ala-Arg-MCA): 54.8%
Miniplasmin [3]
  Activity (mU/ml): 17.7 mU/ml

## Cc1cc(=O)oc2cc(NC(=O)[C@H](CCCNC(=N)N)NC(=O)[C@@H]3CCCN3C(=O)[C@@H](NC(=O)OC(C)(C)C)C(C)C)ccc12 [Boc-Val-Pro-Arg-MCA] (Boc-Val-Pro-Arg-{AMC})
Miniplasmin [3]
  Activity (mU/ml): 5.0 mU/ml

## Cc1cc(=O)oc2cc(NC(=O)[C@H](Cc3ccc(O)cc3)NC(=O)[C@@H](NC(=O)[C@H](CC(C)C)NC(=O)[C@H](CC(C)C)NC(=O)CCC(=O)O)C(C)C)ccc12 [Suc-Leu-Leu-Val-Tyr-MCA] (Suc-LLVY-{AMC})
Miniplasmin [3]
  Activity (mU/ml): 0.0 mU/ml

## Cc1cc(=O)oc2cc(NC(=O)[C@H](CCCNC(=N)N)NC(=O)[C@H](CCCCN)NC(=O)CNC(=O)OC(C)(C)C)ccc12 [Boc-Gly-Lys-Arg-MCA] (Boc-Gly-Lys-Arg-{AMC})
Miniplasmin [3]
  Activity (mU/ml): 3.1 mU/ml
